Measured values published in patent publication US8431341B2, “Compositions and methods for the identification of inhibitors of protein synthesis” (priority 2006, dated 2013).
[5mC] = 5-methylcytosine; m = 2'-O-methyl; r = 2'-OH (RNA)

System: fluorescent peptide that mimics phenylalanine synthetase
Assay: Binding of yeast tRNAPhe ASL RNA oligomers to a phenylalanine synthetase peptide mimic
Conditions: compared with the native RNA oligomer or the unmodified RNA oligomer; FIG. 2
Description: A set of experiments was conducted to identify an RNA oligomer substrate to be used in an assay to identify substrates for use in identifying inhibitors of tRNA binding to a phenylalanine synthetase from yeast. A peptide was first identified for use as a phenylalanine synthetase mimic. The peptide was labeled with a fluorescent peptide for use in detection in binding assays.
A series of RNA oligomer substrates were also synthesized containing modified nucleotides (FIG. 2).
To determine binding affinity, an assay of ASL for yeast tRNA^phe was prepared varying only in the number of post-transcriptional nucleotide base modifications. This array was probed using a peptide from a phage display library that bound to an ASL containing 3 modifications. The affect of modification on the affinity of a peptide to an RNA substrate-sequence (Sequence A in FIG. 2: 5′-CCAGACUGAAGAUCUGG) (SEQ ID NO: 18) is the primary unmodified yeast ASL^Phe. Sequence B in FIG. 2 (5′-CCAGACmUGm AAGAUm^5CUGG) (SEQ ID NO: 19) is a template ASL sequence indicating the locations of the modified nucleotides for the various combinations of modified nucleotide bases in the mimics of the anticodon stem loop. Sequence C in FIG. 2 (5′-CCAGACmUGmAAm1GAΨm^5CUGG) (SEQ ID NO: 20) is the sequence of the native yeast tRNA^phe. […]

Substance: 5′-CCAGACmUGm AAGAUm^5CUGG (CCAGACUGAAGAUCUGG; sugars from the 5' end r5 m1 r1 m1 r9, [5mC] at 14, backbone not given here; listed as Yersinia enterocolitica)
- affinity for a fluorescent peptide that mimics phenylalanine synthetase: greater affinity
